Measurements as given in US7410986B2, “4-6-diphenyl pyridine derivatives as antiinflammatory agents” (Bayer Aktiengesellschaft, priority 2000, dated 2008).
Like-named read-outs stand apart in the source and are kept apart here.

How the values were obtained:
[1] = test system: RANTES production in response to TNF-α from A549 cells; assay: RANTES production in response to TNF-α from A549 cells; type: cell-based, human; settings: 100 ng/ml TNF-α, compounds of about 40 to 90% purity, read-out: Cellular activity grade (A549, IC50)
human IKK-β = target: T1, human IKK-β (Homo sapiens, UniProt O14920); assay: IKK-β kinase inhibitory assay; type: biochemical; settings: compounds of about 40 to 90% purity, read-out: In vitro activity grade (invitro, IC50)
T1 construct: A cDNA fragment encoding human IKK-β open reading frame was generated by PCR; His; made in house; host or cells: Sf21 insect cells (baculovirus); the GST-IκBα substrate was made in E. coli
T1 sequence (O14920 1-756): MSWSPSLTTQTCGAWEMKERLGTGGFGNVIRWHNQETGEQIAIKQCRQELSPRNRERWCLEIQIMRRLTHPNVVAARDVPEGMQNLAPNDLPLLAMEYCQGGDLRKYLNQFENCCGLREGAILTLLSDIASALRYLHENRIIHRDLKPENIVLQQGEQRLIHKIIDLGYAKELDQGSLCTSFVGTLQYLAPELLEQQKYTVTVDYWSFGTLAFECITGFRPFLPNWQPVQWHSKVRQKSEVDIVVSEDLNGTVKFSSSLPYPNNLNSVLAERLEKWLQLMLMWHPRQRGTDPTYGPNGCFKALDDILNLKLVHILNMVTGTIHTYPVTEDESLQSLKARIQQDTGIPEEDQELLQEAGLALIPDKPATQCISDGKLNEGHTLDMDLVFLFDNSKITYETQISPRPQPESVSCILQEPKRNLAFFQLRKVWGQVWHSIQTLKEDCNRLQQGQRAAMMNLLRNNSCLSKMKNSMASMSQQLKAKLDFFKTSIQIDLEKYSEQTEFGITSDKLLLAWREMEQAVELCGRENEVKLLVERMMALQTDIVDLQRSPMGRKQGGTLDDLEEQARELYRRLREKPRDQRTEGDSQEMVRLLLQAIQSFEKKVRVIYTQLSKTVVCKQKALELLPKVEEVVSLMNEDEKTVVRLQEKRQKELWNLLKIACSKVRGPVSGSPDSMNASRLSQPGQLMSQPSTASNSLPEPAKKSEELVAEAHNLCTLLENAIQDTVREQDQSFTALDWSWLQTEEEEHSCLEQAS
Procedure, shortened: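 His-tagged human IKK-β from baculovirus-infected Sf21 cells (final 0.6 μg/ml) with biotinylated GST-IκBα (1-54) (final 0.2 μM) in Tris-HCl pH 7.6/MgCl2 buffer with 2.5% DMSO compound. Reaction started with ATP plus [γ-^33P] ATP, 2 hrs at room temperature; EDTA-stopped, substrate captured on streptavidin plates and bound radioactivity counted by scintillation.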

| Compound | IC50 ([1]; 24 hrs) | IC50 (human IKK-β) | IC50 ([1]; Homo sapiens, A549, 24 h) |
| --- | --- | --- | --- |
| N#Cc1c(-c2cccc(NC(=O)C3CCC(=O)O3)c2)cc(-c2ccccc2O)nc1N (stereo not drawn) [Example 1-03] | > 10 µM | 500 to 2000 nM |  |
| CN1CCN(C(=O)Nc2cccc(-c3cc(-c4ccccc4O)nc(N)c3C#N)c2)CC1 [Example 2-08] |  | 2000 to 10000 nM | 1 to 10 µM |
| N#Cc1c(-c2cccc(N)c2)cc(-c2ncccc2O)nc1N [Example 1-21] |  | 2000 to 10000 nM | 1 to 10 µM |
| N#Cc1c(-c2ccc(N3CCC(N)C3)c(NC(=O)CCN)c2)cc(-c2ccccc2O)nc1N (stereo not drawn) [Example 3-02] |  | < 500 nM | 1 to 10 µM |
| N#Cc1c(-c2ccc(Cl)c(NC(=O)CCN3CCCCC3)c2)cc(-c2ccccc2O)nc1N [Example 2-18] |  | 500 to 2000 nM | > 10 µM |
| CN(C)c1ccc(-c2cc(-c3ccccc3O)nc(N)c2C#N)cc1NC(=O)CCN [Example 3-07] |  | < 500 nM | 1 to 10 µM |
| CC(=O)N1CCN(CC(=O)Nc2cccc(-c3cc(-c4ccccc4O)nc(N)c3C#N)c2)CC1 [Example 4-05] |  | 2000 to 10000 nM | > 10 µM |
| N#Cc1c(-c2ccc(OCC3CC3)c(NC(=O)CN3CCCCC3)c2)cc(-c2ccccc2O)nc1N [Example 4-35] |  | > 10000 nM | > 10 µM |
| COc1cccc(O)c1-c1cc(-c2cccc(NC(=O)C3CCC(=O)O3)c2)c(C#N)c(N)n1 (stereo not drawn) [Example 1-12] |  | 500 to 2000 nM | > 10 µM |
| N#Cc1c(-c2ccc(NC(=O)C(O)CCC(=O)O)cc2)cc(-c2ccccc2O)nc1N (stereo not drawn) [Example 1-10] |  | < 500 nM | > 10 µM |
| COCCNCC(=O)Nc1cc(-c2cc(-c3ccccc3O)nc(N)c2C#N)ccc1OCC1CC1 [Example 4-32] |  | 2000 to 10000 nM | 1 to 10 µM |
| N#Cc1c(-c2ccc(Cl)c(NC(=O)C(O)CCC(=O)O)c2)cc(-c2ccccc2O)nc1N (stereo not drawn) [Example 1-15] |  | < 500 nM | > 10 µM |
| Cc1ccc(O)c(-c2cc(-c3cccc(NC(=O)CCN4CCCCC4)c3)c(C#N)c(N)n2)c1 [Example 2-07] |  | 2000 to 10000 nM | > 10 µM |
| N#Cc1c(-c2cccc(NC(=O)CCCC(=O)O)c2)cc(-c2ccccc2O)nc1N [Example 1-19] |  | 500 to 2000 nM | > 10 µM |
| N#Cc1c(-c2cccc(NC(=O)CN3CCN(CCO)CC3)c2)cc(-c2ccccc2O)nc1N [Example 4-08] |  | 500 to 2000 nM | 1 to 10 µM |
| N#Cc1c(-c2ccc(N3CCCCC3)c(NC(=O)CCN3CCCCC3)c2)cc(-c2ccccc2O)nc1N [Example 3-10] |  | 2000 to 10000 nM | 1 to 10 µM |

Further lines, results first:

| IC50 ([1]; 24 hrs) | IC50 (human IKK-β) | IC50 ([1]; Homo sapiens, A549, 24 h) | Compound |
| --- | --- | --- | --- |
|  | 500 to 2000 nM | 1 to 10 µM | N#Cc1c(-c2cccc(NC(=O)CCNCC3CC3)c2)cc(-c2ccccc2O)nc1N [Example 4-21] |
|  | 500 to 2000 nM | 1 to 10 µM | CCN(CCO)c1ccc(-c2cc(-c3ccccc3O)nc(N)c2C#N)cc1NC(=O)CCN [Example 3-05] |
|  | 500 to 2000 nM | > 10 µM | N#Cc1c(-c2ccc(NC(=O)CCN3CCCCC3)cc2)cc(-c2ccccc2O)nc1N [Example 2-05] |
|  | > 10000 nM | > 10 µM | CC(=O)Nc1nc(-c2ccccc2O)cc(-c2cccc(NC(=O)CCN3CCCCC3)c2)c1C#N [Example 2-06] |
|  | < 500 nM | > 10 µM | N#Cc1c(-c2cccc(NC(=O)C[C@H](N)C(=O)O)c2)cc(-c2ccccc2O)nc1N [Example 1-09] |
|  | 2000 to 10000 nM | > 10 µM | N#Cc1c(-c2cccc(NC(=O)C3CCC(=O)N3)c2)cc(-c2ccccc2O)nc1N (stereo not drawn) [Example 1-05] |
|  | 500 to 2000 nM | 1 to 10 µM | CCN1CCN(CC(=O)Nc2cccc(-c3cc(-c4ccccc4O)nc(N)c3C#N)c2)CC1 [Example 4-06] |
|  | 500 to 2000 nM | 1 to 10 µM | N#Cc1c(-c2cccc(NC(=O)NCCN3CCCCC3)c2)cc(-c2ccccc2O)nc1N [Example 2-09] |
